# Values of other authors as cited in patent publication US9265757B2, “Methods of administering antihistamines” (APTAPHARMA INC., priority 2011, dated 2016).
# Conditions: second generation antihistamines; from time of administration to symptomatic relief
row,SMILES,lag time before onset of action
1,CC(C)(C)c1ccc(C(O)CCCN2CCC(C(O)(c3ccccc3)c3ccccc3)CC2)cc1 (stereo not shown) [terfenadine],several hours
2,COc1ccc(CCN2CCC(Nc3nc4ccccc4n3Cc3ccc(F)cc3)CC2)cc1 [astemizole],several hours
3,O=C(O)COCCN1CCN(C(c2ccccc2)c2ccc(Cl)cc2)CC1 (stereo not shown) [cetirizine],several hours
4,CCOC(=O)N1CCC(=C2c3ccc(Cl)cc3CCc3cccnc32)CC1 [loratadine],several hours
